{"source": "ChEMBL document CHEMBL5143625", "about": "“Isolation, synthesis and bioactivity evaluation of isoquinoline alkaloids from Corydalis hendersonii Hemsl. against gastric cancer in vitro and in vivo” (Bioorg Med Chem, 2022)", "key": {"[1]": {"system": "MGC-803", "experiment": "Antiproliferative activity against human MGC-803 cells assessed as reduction in cell viability after 24 hrs by MTT assay", "assay_type": "functional, cell-based", "details": "MGC-803, 24 h"}, "[2]": {"system": "MGC-803", "experiment": "Inhibition of cell invasion in human MGC-803 cells assessed as reduction in invasion at 0.5 to 4 uM for 24 hrs by transwell invasion assay", "assay_type": "functional, cell-based", "details": "dose 0.5-4 µM, DDE = dose-dependent effect"}, "[3]": {"system": "MGC-803", "experiment": "Antiproliferative activity against human MGC-803 cells assessed as EdU positive cells at 0.5 to 4 uM for 24 hrs by y EdU assay (reference value: 65.2%)", "assay_type": "functional", "details": "dose 0.5-4 µM"}, "[4]": {"system": "MGC-803", "experiment": "Antitumor activity against human MGC-803 cells xenografted in immunodeficient nude mouse assessed as increase in survival at 50 mg/kg, ip administered for 3 weeks", "assay_type": "functional, organism-based"}, "[5]": {"system": "HGC-27", "experiment": "Inhibition of PI3K/AKT/mTOR signalling pathway in human HGC-27 cells assessed as reduction in mTOR phosphorylation at 2 to 16 uM by western blot analysis", "assay_type": "cell-based", "details": "dose 2-16 µM, DDE = dose-dependent effect"}, "[6]": {"system": "HGC-27", "experiment": "Antiproliferative activity against human HGC-27 cells assessed as reduction in cell viability after 24 hrs by MTT assay", "assay_type": "functional, cell-based", "details": "HGC-27, 24 h"}, "[7]": {"experiment": "Half life in Sprague-Dawley rat at 50 mg/kg, ip measured upto 24 hrs by LC-MS analysis", "assay_type": "ADME, organism-based", "details": "in vivo"}, "[8]": {"system": "MGC-803", "experiment": "Antitumor activity against human MGC-803 cells xenografted in immunodeficient nude mouse assessed as tumor volume at 50 mg/kg, ip administered for 3 weeks (reference value: 1039.6 mm3)", "assay_type": "functional"}, "[9]": {"system": "HGC-27", "experiment": "Induction of apoptosis in human HGC-27 cells assessed as increase in twin-kiling cell nuclei at 2 to 16 uM by Hoechst 33342 staining based fluorescent microscopic analysis", "assay_type": "functional", "details": "dose 2-16 µM"}, "[10]": {"experiment": "Tmax in Sprague-Dawley rat at 50 mg/kg, ip measured upto hrs by LC-MS analysis", "assay_type": "ADME, organism-based", "details": "in vivo, time < 24 hrs"}, "[11]": {"system": "GES1", "experiment": "Antiproliferative activity against human GES1 cells assessed as reduction in cell viability after 24 hrs by MTT assay", "assay_type": "functional, cell-based", "details": "GES1, 24 h"}, "[12]": {"system": "MGC-803", "experiment": "Inhibition of colony formation in human MGC-803 cells at 0.5 to 4 uM after 7 to 10 days by crystal violet staining based assay", "assay_type": "functional, cell-based", "details": "dose 0.5-4 µM, time 7-10 day, DDE = dose-dependent effect"}, "[13]": {"system": "HGC-27", "experiment": "Antiproliferative activity against human HGC-27 cells assessed as EdU positive cells at 1 to 8 uM for 24 hrs by y EdU assay (reference value: 56.2%)", "assay_type": "functional", "details": "dose 1-8 µM"}, "[14]": {"experiment": "Toxicity in immunodeficient nude mouse xenografted with human MGC-803 cells assessed as reduction in body weight at 50 mg/kg, ip administered for 3 weeks relative to control", "assay_type": "organism-based", "details": "in vivo, 504 h"}, "[15]": {"system": "MGC-803", "experiment": "Induction of apoptosis in human MGC-803 cells assessed as decrease in cytochrome C expression at 1.25 to 10 uM by western blot analysis", "assay_type": "functional, cell-based", "details": "dose 1.25-10 µM, DDE = dose-dependent effect"}, "[16]": {"system": "MGC-803", "experiment": "Induction of mitochondrial membrane potential loss in human MGC-803 cells assessed as TMRE positive cells at 1.25 to 10 uM by TRME staining based flow cytometric analysis (reference value: 6.8%)", "assay_type": "functional, cell-based", "details": "dose 1.25-10 µM, DDE = dose-dependent effect"}, "[17]": {"system": "HGC-27", "experiment": "Induction of apoptosis in human HGC-27 cells assessed as decrease in cytochrome C expression at 2 to 16 uM by western blot analysis", "assay_type": "functional, cell-based", "details": "dose 2-16 µM, DDE = dose-dependent effect"}, "[18]": {"system": "MGC-803", "experiment": "Induction of apoptosis in human MGC-803 cells assessed as increase in cleaved caspase-3 expression at 1.25 to 10 uM by western blot analysis", "assay_type": "functional, cell-based", "details": "dose 1.25-10 µM, DDE = dose-dependent effect"}, "[19]": {"system": "MGC-803", "experiment": "Induction of ROS generation in human MGC-803 cells at 1.25 to 10 uM by DCFH-DA staining based fluorescence microscopic analysis", "assay_type": "functional, cell-based", "details": "dose 1.25-10 µM, DDE = dose-dependent effect"}, "[20]": {"experiment": "Cmax in Sprague-Dawley rat at 50 mg/kg, ip measured upto 24 hrs by LC-MS analysis", "assay_type": "ADME, organism-based", "design": "time < 24 hrs, dose 50 mg/kg, route ip", "details": "in vivo"}, "[21]": {"system": "HGC-27", "experiment": "Induction of apoptosis in human HGC-27 cells assessed as increase in Bax expression at 2 to 16 uM by western blot analysis", "assay_type": "functional, cell-based", "details": "dose 2-16 µM, DDE = dose-dependent effect"}, "[22]": {"system": "HGC-27", "experiment": "Inhibition of cell migration in human HGC-27 cells assessed as reduction in migration at 1 to 8 uM for 24 hrs by wound healing assay", "assay_type": "functional, cell-based", "details": "dose 1-8 µM, DDE = dose-dependent effect"}, "[23]": {"system": "MGC-803", "experiment": "Inhibition of cell migration in human MGC-803 cells assessed as reduction in migration at 0.5 to 4 uM for 24 hrs by wound healing assay", "assay_type": "functional, cell-based", "details": "dose 0.5-4 µM, DDE = dose-dependent effect"}, "[24]": {"system": "HGC-27", "experiment": "Induction of apoptosis in human HGC-27 cells assessed as increase in apoptotic cells at 2 to 16 uM after 48 hr by AnnexinV-FITC/PI staining based flow cytometric analysis (reference value: 5.03%)", "assay_type": "functional, cell-based", "details": "dose 2-16 µM, DDE = dose-dependent effect"}, "[25]": {"system": "HGC-27", "experiment": "Inhibition of DNA topoisomerase 1 in human HGC-27 cells assessed as relaxation of supercoiled plasmid pBR322 DNA at 15 to 30 uM incubated for 30 mins by agarose gel electrophoresis", "assay_type": "cell-based", "details": "dose 15-30 µM"}, "[26]": {"system": "MGC-803", "experiment": "Antitumor activity against human MGC-803 cells xenografted in immunodeficient nude mouse assessed as tumor weight at 50 mg/kg, ip administered for 3 weeks (reference value: 157.8 mg)", "assay_type": "functional"}, "[27]": {"system": "HGC-27", "experiment": "Induction of apoptosis in human HGC-27 cells assessed as reduction in BCl2 expression at 2 to 16 uM by western blot analysis", "assay_type": "functional, cell-based", "details": "dose 2-16 µM, DDE = dose-dependent effect"}, "[28]": {"system": "MGC-803", "experiment": "Inhibition of cell migration in human MGC-803 cells assessed as reduction in migration at 0.5 to 4 uM for 24 hrs by transwell migration assay", "assay_type": "functional, cell-based", "details": "dose 0.5-4 µM, DDE = dose-dependent effect"}, "[29]": {"system": "HGC-27", "experiment": "Inhibition of cell invasion in human HGC-27 cells assessed as reduction in invasion at 1 to 8 uM for 24 hrs by transwell invasion assay", "assay_type": "functional, cell-based", "details": "dose 1-8 µM, DDE = dose-dependent effect"}, "[30]": {"system": "HGC-27", "experiment": "Induction of cell cycle arrest in human HGC-27 cells assessed as cells accumulation at G2/M phase at 2 to 16 uM after 48 hrs by propidium iodide staining based flow cytometric analysis (reference value: 5.3%)", "assay_type": "functional", "details": "dose 2-16 µM"}, "[31]": {"system": "MGC-803", "experiment": "Induction of apoptosis in human MGC-803 cells assessed as reduction in BCl2 expression at 1.25 to 10 uM by western blot analysis", "assay_type": "functional, cell-based", "details": "dose 1.25-10 µM, DDE = dose-dependent effect"}, "[32]": {"system": "HGC-27", "experiment": "Inhibition of PI3K/AKT/mTOR signalling pathway in human HGC-27 cells assessed as reduction in AKT phosphorylation at 2 to 16 uM by western blot analysis", "assay_type": "cell-based", "details": "dose 2-16 µM, DDE = dose-dependent effect"}, "[33]": {"system": "HGC-27", "experiment": "Induction of ROS generation in human HGC-27 cells at 2 to 16 uM by DCFH-DA staining based fluorescence microscopic analysis", "assay_type": "functional, cell-based", "details": "dose 2-16 µM, DDE = dose-dependent effect"}, "[34]": {"system": "HGC-27", "experiment": "Induction of apoptosis in human HGC-27 cells assessed as increase in cleaved caspase-3 expression at 2 to 16 uM by western blot analysis", "assay_type": "functional, cell-based", "details": "dose 2-16 µM, DDE = dose-dependent effect"}, "[35]": {"system": "MGC-803", "experiment": "Induction of apoptosis in human MGC-803 cells assessed as increase in cleaved caspase-9 expression at 1.25 to 10 uM by western blot analysis", "assay_type": "functional, cell-based", "details": "dose 1.25-10 µM, DDE = dose-dependent effect"}, "[36]": {"experiment": "AUC(0 to t) in Sprague-Dawley rat at 50 mg/kg, ip measured upto 24 hrs by LC-MS analysis", "assay_type": "ADME, organism-based", "design": "time < 24 hrs, dose 50 mg/kg, route ip", "details": "in vivo"}, "[37]": {"experiment": "MRT(0 to t) in Sprague-Dawley rat at 50 mg/kg, ip measured upto 24 hrs by LC-MS analysis", "assay_type": "ADME, organism-based", "details": "in vivo"}}, "note": "The source made the active and inactive calls. The rule behind the calls is not given here.", "data": [{"smiles": "Oc1c(Cc2nccc3cc4c(cc23)OCO4)ccc2c1OCO2", "values": [{"measurement": "IC50", "setting": "[1]", "value": 5.1, "unit": "µM"}, {"measurement": "inhibition", "setting": "[2]", "value": "Dde"}, {"measurement": "Activity", "setting": "[3]", "value": 19.9, "unit": "%"}, {"measurement": "Activity", "setting": "[4]", "value": "Active"}, {"measurement": "inhibition", "setting": "[5]", "value": "Dde"}, {"measurement": "IC50", "setting": "[6]", "value": 7.6, "unit": "µM"}, {"measurement": "half-life", "setting": "[7]", "value": 2.3, "unit": "h"}, {"measurement": "Activity", "setting": "[8]", "value": 440.1, "unit": "mm3"}, {"measurement": "Activity", "setting": "[9]", "value": 41.1, "unit": "%"}, {"measurement": "Activity", "setting": "[9]; DDE = dose-dependent effect", "value": "Dde"}, {"measurement": "Tmax", "setting": "[10]", "value": 2, "unit": "h"}, {"measurement": "IC50", "setting": "[11]", "value": 98.4, "unit": "µM"}, {"measurement": "inhibition", "setting": "[12]", "value": "Dde"}, {"measurement": "Activity", "setting": "[13]", "value": 20.8, "unit": "%"}, {"measurement": "Activity", "setting": "[14]", "value": "Non-Toxic"}, {"measurement": "Activity", "setting": "[15]", "value": "Dde"}, {"measurement": "Activity", "setting": "[16]", "value": "Dde"}, {"measurement": "Activity", "setting": "[17]", "value": "Dde"}, {"measurement": "Activity", "setting": "[18]", "value": "Dde"}, {"measurement": "Activity", "setting": "[19]", "value": "Dde"}, {"measurement": "Cmax", "setting": "[20]", "value": 8900, "unit": "ng/mL"}, {"measurement": "Activity", "setting": "[21]", "value": "Dde"}, {"measurement": "inhibition", "setting": "[22]", "value": "Dde"}, {"measurement": "inhibition", "setting": "[23]", "value": "Dde"}, {"measurement": "Activity", "setting": "[24]", "value": "Dde"}, {"measurement": "inhibition", "setting": "[25]", "value": "Active"}, {"measurement": "Activity", "setting": "[26]", "value": 176.2, "unit": "mg"}, {"measurement": "Activity", "setting": "[27]", "value": "Dde"}, {"measurement": "inhibition", "setting": "[28]", "value": "Dde"}, {"measurement": "inhibition", "setting": "[29]", "value": "Dde"}, {"measurement": "Activity", "setting": "[30]", "value": 51.2, "unit": "%"}, {"measurement": "Activity", "setting": "[31]", "value": "Dde"}, {"measurement": "inhibition", "setting": "[32]", "value": "Dde"}, {"measurement": "Activity", "setting": "[33]", "value": "Dde"}, {"measurement": "Activity", "setting": "[34]", "value": "Dde"}, {"measurement": "Activity", "setting": "[35]", "value": "Dde"}, {"measurement": "AUC(0-t) at 24 h", "setting": "[36]", "value": 29500, "unit": "ng·h/mL"}, {"measurement": "MRT last at 24 h", "setting": "[37]", "value": 3.3, "unit": "h"}]}]}
